According to ChEMBL document CHEMBL1146263, “Antibiotic-conjugated polyacrylate nanoparticles: new opportunities for development of anti-MRSA agents” (Bioorg Med Chem Lett, 2007):
≈ marks a conversion by molar mass, not a printed value.

Legend:
[1] = Toxicity in human dermal fibroblasts; type: cell-based; conditions: fibroblast
[2] = test system: Staphylococcus aureus; test: Antibacterial activity against Staphylococcus aureus ATCC 25923 after 24 hrs by agar dilution method; type: functional; conditions: ATCC 25923, 24 h
[3] = test system: Serum; test: Stability in human blood serum after 24 hrs; type: ADME, cell-free
[4] = Chemical stability up to 60 degC after 24 hrs; type: physicochemical
[5] = test system: Staphylococcus aureus; test: Antibacterial activity against methicillin-resistant Staphylococcus aureus ATCC 43300 after 24 hrs by agar dilution method; type: functional; conditions: ATCC 43300, 24 h

| SMILES | Activity [1] | MIC [2] [mg/L] | Activity [3] | Activity [4] | MIC [5] [mg/L] |
| --- | --- | --- | --- | --- | --- |
| C=CC(=O)Oc1ccc(C2C(OC(=O)C=C)C(=O)N2SC)cc1 (stereo not given) | Non-toxic | 128 (≈ 384 µM) | Stable | Stable | 128 (≈ 384 µM) |
| C=CC(=O)OC1C(=O)N(SC)C1c1ccccc1Cl (stereo not given) | Non-toxic | 128 (≈ 430 µM) | Stable | Stable | 128 (≈ 430 µM) |
| C=CC(=O)OCCOC(=O)CCC(=O)OC1C(=O)N(SC)C1c1ccccc1Cl (stereo not given) | Non-toxic | 64 (≈ 145 µM) | Stable | Stable | 64 (≈ 145 µM) |
| C=CC(=O)Oc1ccc(C2C(OC)C(=O)N2SC)cc1 (stereo not given) | Non-toxic | 128 (≈ 436 µM) | Stable | Stable | 128 (≈ 436 µM) |
